What was measured:
[1] = biological target: recombinant Dictyostelium miozin (Dictyostelium) (Dictyostelium discoideum, UniProt P08799); test: actomyosin steady state ATPase measurement, Dictyostelium myosin; type: biochemical
Description: (§1) […]; (ii) the concentration required for semi-maximal inhibition.

[2] = biological target: recombinant human non-muscle myosin 2 NM2A (Homo sapiens, UniProt P35579); test: actomyosin steady state ATPase measurement, NM2A; type: biochemical
Description: as §1

[3] = biological target: recombinant human non-muscle myosin 2 NM2B (Homo sapiens, UniProt P35580); test: actomyosin steady state ATPase measurement, NM2B; type: biochemical
Description: as §1

[4] = biological target: recombinant human non-muscle myosin 2 NM2C (Homo sapiens, UniProt Q7Z406); test: actomyosin steady state ATPase measurement, NM2C; type: biochemical
Description: as §1

[5] = biological target: T1, isolated porcine cardiac ventricular myocardium (cardiac) (Sus scrofa, UniProt P79293); test: actomyosin steady state ATPase measurement, cardiac myosin; type: biochemical
T1 construct: isolated porcine cardiac ventricular myocardium (cardiac); from tissue; host or cells: porcine cardiac ventricle
Description: as §1

[6] = tested on: isolated rabbit skeletal muscle myosin (skeletal); test: actomyosin steady state ATPase measurement, skeletal muscle myosin; type: biochemical
Description: as §1

[7] = biological target: isolated smooth muscle myosin (UniProt P10587); type: biochemical, chamois; conditions: concentration required for semi-maximal inhibition of ATPase
Description: (ii) the concentration required for semi-maximal inhibition.

[8] = tested on: M. quadriceps femoris; test: isometric force measurement of live, anesthetized rat M. quadriceps femoris due to electrical stimulation; type: in vivo
Experimental: The maximum isometric force induced by the stimulation was determined after intraperitoneal injection of some of the compounds of the invention. During the measurement, the following parameters of live anesthetized rats were continuously monitored: • a) heart rate • b) blood flow in the neck arteries • c) respiratory frequency • d) blood oxygen saturation ratio Results from live anesthetized rats are summarized in the table below.

[9] = vital parameters of live anesthetized rats monitored during isometric force measurement; type: in vivo; conditions: anesthetized rat; for Maximum change of vital parameters (%) blood flow: neck arteries
Experimental: The maximum isometric force induced by the stimulation was determined after intraperitoneal injection of some of the compounds of the invention. During the measurement, the following parameters of live anesthetized rats were continuously monitored: • a) heart rate • b) blood flow in the neck arteries • c) respiratory frequency • d) blood oxygen saturation ratio

[10] = solubility in PBS in the presence of 1% DMSO; type: physicochemical; conditions: phosphate buffered saline with 1% DMSO, aqueous buffer, kinetic from dmso stock, PBS w/o Mg, Ca
[11] = tested on: S. typhimurium TA98; test: Ames Reverse Mutagenicity Assay (Ames MPF Test), TA98; type: cell-based
Experimental: (§2) Mutagenicity of the compounds was determined in the Ames Reverse Mutagenicity Assay (Ames MPF Test, Xenometrix Inc.) approved by the OECD, EMA and FDA on S. typhimurium TA98 and TA100 strains without or in the presence of S9 rat liver fraction. Relative mutagenicity values were prepared using a table provided by the manufacturer. Relative mutagenicity values according to OECD, EMA, and FDA standards may not exceed 2 at any concentration because in such a case they are potentially mutagenic.

[12] = tested on: S. typhimurium TA100; test: Ames Reverse Mutagenicity Assay (Ames MPF Test), TA100; type: cell-based
Experimental: as §2

[13] = biological target: isolated smooth muscle myosin (UniProt P10587); type: biochemical, chamois
[14] = maximum value of inhibition of ATPase activity
[15] = concentration required for semi-maximal inhibition of ATPase
[16] = 5 μM (10 μM if racemate), ATPase activity
[17] = 50 μM (100 μM if racemate), ATPase activity

T1 sequence (P79293 whole entry): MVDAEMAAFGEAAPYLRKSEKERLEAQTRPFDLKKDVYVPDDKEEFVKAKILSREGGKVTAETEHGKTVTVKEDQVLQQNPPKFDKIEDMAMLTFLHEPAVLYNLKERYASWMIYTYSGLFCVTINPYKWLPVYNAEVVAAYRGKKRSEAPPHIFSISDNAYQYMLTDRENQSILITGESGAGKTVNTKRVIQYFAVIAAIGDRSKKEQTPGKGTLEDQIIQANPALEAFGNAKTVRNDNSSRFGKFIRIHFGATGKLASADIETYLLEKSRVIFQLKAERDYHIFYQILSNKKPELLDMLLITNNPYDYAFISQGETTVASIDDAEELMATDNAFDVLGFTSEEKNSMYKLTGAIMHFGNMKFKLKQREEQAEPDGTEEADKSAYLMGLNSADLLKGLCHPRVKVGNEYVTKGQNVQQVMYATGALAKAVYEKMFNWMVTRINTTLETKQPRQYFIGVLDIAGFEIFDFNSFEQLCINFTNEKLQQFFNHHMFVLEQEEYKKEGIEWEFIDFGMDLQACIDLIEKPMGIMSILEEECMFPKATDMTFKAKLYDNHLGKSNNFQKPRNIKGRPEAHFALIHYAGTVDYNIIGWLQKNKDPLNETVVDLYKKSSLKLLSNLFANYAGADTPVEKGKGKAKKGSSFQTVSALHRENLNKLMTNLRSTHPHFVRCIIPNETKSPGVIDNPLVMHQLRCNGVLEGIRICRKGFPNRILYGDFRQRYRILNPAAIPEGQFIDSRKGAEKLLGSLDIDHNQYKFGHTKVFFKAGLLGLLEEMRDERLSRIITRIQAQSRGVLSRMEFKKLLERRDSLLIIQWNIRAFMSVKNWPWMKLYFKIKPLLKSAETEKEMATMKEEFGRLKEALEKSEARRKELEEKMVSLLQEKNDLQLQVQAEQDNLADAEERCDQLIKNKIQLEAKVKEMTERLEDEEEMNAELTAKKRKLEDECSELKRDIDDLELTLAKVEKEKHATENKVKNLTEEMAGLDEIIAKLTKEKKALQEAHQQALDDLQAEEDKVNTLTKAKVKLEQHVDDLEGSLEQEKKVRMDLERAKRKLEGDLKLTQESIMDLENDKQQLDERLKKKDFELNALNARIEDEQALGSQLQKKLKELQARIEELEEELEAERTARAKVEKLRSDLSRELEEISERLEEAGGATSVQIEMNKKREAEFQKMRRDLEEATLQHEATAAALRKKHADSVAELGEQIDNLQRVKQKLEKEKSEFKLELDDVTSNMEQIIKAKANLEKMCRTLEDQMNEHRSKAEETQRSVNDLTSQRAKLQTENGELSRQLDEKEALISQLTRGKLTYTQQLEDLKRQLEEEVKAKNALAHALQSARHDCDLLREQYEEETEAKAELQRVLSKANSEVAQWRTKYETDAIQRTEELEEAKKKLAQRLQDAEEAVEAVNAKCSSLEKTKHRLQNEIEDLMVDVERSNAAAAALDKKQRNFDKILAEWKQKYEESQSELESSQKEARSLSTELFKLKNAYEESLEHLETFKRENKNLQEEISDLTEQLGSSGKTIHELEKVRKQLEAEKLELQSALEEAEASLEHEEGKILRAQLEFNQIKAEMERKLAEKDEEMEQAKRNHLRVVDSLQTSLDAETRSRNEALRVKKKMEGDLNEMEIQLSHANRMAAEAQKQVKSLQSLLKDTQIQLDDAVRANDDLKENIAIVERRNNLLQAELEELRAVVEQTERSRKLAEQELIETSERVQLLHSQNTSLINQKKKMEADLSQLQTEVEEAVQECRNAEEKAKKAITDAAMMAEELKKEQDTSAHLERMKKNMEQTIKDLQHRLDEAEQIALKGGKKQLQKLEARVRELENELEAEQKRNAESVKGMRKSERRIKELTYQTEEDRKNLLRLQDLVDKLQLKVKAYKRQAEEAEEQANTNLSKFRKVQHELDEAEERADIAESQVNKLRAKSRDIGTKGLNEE
Sequence of isolated smooth muscle myosin (P10587 whole entry): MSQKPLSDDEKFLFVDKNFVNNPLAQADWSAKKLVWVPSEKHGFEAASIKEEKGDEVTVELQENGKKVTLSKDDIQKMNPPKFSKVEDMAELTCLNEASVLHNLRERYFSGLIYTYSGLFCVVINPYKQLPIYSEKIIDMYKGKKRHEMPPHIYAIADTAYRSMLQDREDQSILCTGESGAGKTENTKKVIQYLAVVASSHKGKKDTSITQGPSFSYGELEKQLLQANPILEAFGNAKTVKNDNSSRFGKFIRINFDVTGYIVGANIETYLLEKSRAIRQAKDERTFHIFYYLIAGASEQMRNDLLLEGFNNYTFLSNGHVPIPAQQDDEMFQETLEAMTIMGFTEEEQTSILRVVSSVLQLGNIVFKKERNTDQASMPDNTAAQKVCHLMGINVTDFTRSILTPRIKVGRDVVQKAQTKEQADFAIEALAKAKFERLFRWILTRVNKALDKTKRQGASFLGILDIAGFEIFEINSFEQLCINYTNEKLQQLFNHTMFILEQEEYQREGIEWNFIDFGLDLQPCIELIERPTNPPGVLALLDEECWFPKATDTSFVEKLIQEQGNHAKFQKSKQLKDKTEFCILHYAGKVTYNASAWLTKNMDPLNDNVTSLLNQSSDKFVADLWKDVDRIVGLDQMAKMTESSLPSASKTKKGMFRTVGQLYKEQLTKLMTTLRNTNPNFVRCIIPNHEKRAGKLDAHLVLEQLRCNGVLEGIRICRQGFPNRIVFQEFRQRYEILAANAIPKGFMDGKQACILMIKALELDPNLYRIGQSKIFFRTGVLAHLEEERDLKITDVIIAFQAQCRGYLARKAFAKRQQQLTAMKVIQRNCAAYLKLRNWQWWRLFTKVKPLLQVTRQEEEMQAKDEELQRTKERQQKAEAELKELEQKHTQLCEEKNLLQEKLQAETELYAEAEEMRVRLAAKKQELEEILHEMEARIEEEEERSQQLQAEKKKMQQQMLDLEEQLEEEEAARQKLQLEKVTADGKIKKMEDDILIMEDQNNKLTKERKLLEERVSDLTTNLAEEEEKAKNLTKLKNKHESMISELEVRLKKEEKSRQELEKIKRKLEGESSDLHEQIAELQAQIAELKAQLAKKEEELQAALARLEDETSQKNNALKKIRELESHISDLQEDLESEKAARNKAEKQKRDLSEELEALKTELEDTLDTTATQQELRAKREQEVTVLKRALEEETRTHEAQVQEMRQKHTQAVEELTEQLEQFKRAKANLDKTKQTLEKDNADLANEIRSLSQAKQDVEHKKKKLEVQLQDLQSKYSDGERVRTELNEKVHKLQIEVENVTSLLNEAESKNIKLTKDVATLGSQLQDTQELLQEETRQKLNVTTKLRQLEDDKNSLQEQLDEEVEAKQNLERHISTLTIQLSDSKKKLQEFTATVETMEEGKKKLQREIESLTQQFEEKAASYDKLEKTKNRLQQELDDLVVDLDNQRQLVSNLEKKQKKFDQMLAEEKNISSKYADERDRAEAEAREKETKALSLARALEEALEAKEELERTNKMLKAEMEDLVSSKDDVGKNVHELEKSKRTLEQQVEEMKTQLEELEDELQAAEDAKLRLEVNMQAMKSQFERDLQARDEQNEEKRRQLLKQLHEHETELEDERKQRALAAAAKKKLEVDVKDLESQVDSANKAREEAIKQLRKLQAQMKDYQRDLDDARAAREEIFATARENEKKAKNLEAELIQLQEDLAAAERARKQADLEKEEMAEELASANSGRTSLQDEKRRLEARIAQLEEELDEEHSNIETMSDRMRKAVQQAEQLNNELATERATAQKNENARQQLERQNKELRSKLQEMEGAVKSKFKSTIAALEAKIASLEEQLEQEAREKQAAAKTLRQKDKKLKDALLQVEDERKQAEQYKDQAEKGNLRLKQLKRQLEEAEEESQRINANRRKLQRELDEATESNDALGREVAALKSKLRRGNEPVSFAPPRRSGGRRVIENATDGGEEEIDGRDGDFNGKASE

## O=C1c2ccsc2N=C2N(c3ccc(N4CCOCC4)cc3)CCC12O (stereo not shown) [Compound 188, 9-Hydroxy-12-[4-(morpholin-4-yl)phenyl]-4-thia-2,12-diazatricyclo[7.3.0.0^3,7]dodeca-1,3(7),5-trien-8-one]
[1]; concentration required for semi-maximal inhibition of ATPase, read-out: IC50 (μM) Dicty
  IC50: 13 µM
[1]; [14]
  % inhibition. complete Dicty: 19%
[1]; read-out: % inhibition at 5 μM (or 10 μM if racemate) Dicty
  inhibition at 5 µM: 5%
[1]; read-out: % inhibition at 50 μM (or 100 μM if racemate) Dicty
  inhibition at 50 µM: 15%
[2]; [15]
  IC50: 82 µM
[2]; [14]
  % inhibition. complete NM2A: 31%
[2]; read-out: % inhibition at 5 μM (or 10 μM if racemate) NM2A, 5 μM (10 μM if racemate), ATPase activity
  inhibition at 5 µM: 0%
[2]; read-out: % inhibition at 50 μM (or 100 μM if racemate) NM2A, 50 μM (100 μM if racemate), ATPase activity
  inhibition at 50 µM: 9%
[3]; [15]
  IC50: 5 µM
[3]; [14]
  % inhibition. complete NM2B: 19%
[3]; read-out: % inhibition at 5 μM (or 10 μM if racemate) NM2B, 5 μM (10 μM if racemate), ATPase activity
  inhibition at 5 µM: 8%
[3]; read-out: % inhibition at 50 μM (or 100 μM if racemate) NM2B, 50 μM (100 μM if racemate), ATPase activity
  inhibition at 50 µM: 18%
[4]; [15]
  IC50: 4 µM
[4]; maximum inhibition, compounds in IC50 range 1-5 μM
  Inhibition (%) NM2C: 15%
[4]; [14]
  % inhibition. complete NM2C: 15%
[4]; read-out: % inhibition at 5 μM (or 10 μM if racemate) NM2C, 5 μM (10 μM if racemate), ATPase activity
  inhibition at 5 µM: 8%
[4]; read-out: % inhibition at 50 μM (or 100 μM if racemate) NM2C, 50 μM (100 μM if racemate), ATPase activity
  inhibition at 50 µM: 14%
[5]; [15]
  IC50: > 100 µM
[5]; [14]
  % inhibition. complete cardiac: 32%
[5]; read-out: % inhibition at 5 μM (or 10 μM if racemate) cardiac, 5 μM (10 μM if racemate), ATPase activity
  inhibition at 5 µM: 0%
[5]; read-out: % inhibition at 50 μM (or 100 μM if racemate) cardiac, 50 μM (100 μM if racemate), ATPase activity
  inhibition at 50 µM: 8%
[6]; [16]
  % inhibition at 5 μM (or 10 μM if racemate) Skeletal: 50%
[6]; [17]
  % inhibition at 50 μM (or 100 μM if racemate) Skeletal: 95%
[6]; [15]
  IC50: 5 µM
[6]; [14]
  % inhibition. complete Skeletal: 100%
[7]
  IC50: > 100 µM
[8]; 1 mg i.p.
  Maximum change in isometric force at rear leg (%): 23%
[8]; 3 mg i.p.
  Maximum change in isometric force at rear leg (%): 26%
[8]; 6 mg i.p.
  Maximum change in isometric force at rear leg (%): 28%
[9]; 1 mg i.p.
  Maximum change of vital parameters (%) heart rate: 3%
  Maximum change of vital parameters (%) oxygen saturation: −16%
  Maximum change of vital parameters (%) respiratory frequency: −18%
  Maximum change of vital parameters (%) blood flow: 15%
[9]; 3 mg i.p.
  Maximum change of vital parameters (%) heart rate: −3%
  Maximum change of vital parameters (%) oxygen saturation: −3%
  Maximum change of vital parameters (%) respiratory frequency: 5%
  Maximum change of vital parameters (%) blood flow: −5%
[9]; 6 mg i.p.
  Maximum change of vital parameters (%) heart rate: −9%
  Maximum change of vital parameters (%) oxygen saturation: −1%
  Maximum change of vital parameters (%) respiratory frequency: −1%
  Maximum change of vital parameters (%) blood flow: −1%
[9]; 9 mg i.p.
  Maximum change of vital parameters (%) heart rate: −12%
  Maximum change of vital parameters (%) oxygen saturation: −27%
  Maximum change of vital parameters (%) respiratory frequency: −40%
  Maximum change of vital parameters (%) blood flow: 9%
[10]
  solubility: 1450 µM
[11]; TA98, +S9, 31.25 μM
  Relative mutagenicity (as compared to the control value): 0.2
[11]; TA98, +S9, 62.5 μM
  Relative mutagenicity (as compared to the control value): 0.2
[11]; TA98, +S9, 125 μM
  Relative mutagenicity (as compared to the control value): 0.4
[11]; TA98, +S9, 250 μM
  Relative mutagenicity (as compared to the control value): 0.4
[11]; TA98, +S9, 500 μM
  Relative mutagenicity (as compared to the control value): 0.4
[11]; TA98, +S9, 1000 μM
  Relative mutagenicity (as compared to the control value): 0.2
[11]; TA98, −S9, 31.25 μM
  Relative mutagenicity (as compared to the control value): 1.2
[11]; TA98, −S9, 62.5 μM
  Relative mutagenicity (as compared to the control value): 0.3
[11]; TA98, −S9, 125 μM
  Relative mutagenicity (as compared to the control value): 0.7
[11]; TA98, −S9, 250 μM
  Relative mutagenicity (as compared to the control value): 0.3
[11]; TA98, −S9, 500 μM
  Relative mutagenicity (as compared to the control value): 0.7
[11]; TA98, −S9, 1000 μM
  Relative mutagenicity (as compared to the control value): 1.0
[12]; TA100, +S9, 31.25 μM
  Relative mutagenicity (as compared to the control value): 0.4
[12]; TA100, +S9, 62.5 μM
  Relative mutagenicity (as compared to the control value): 0.3
[12]; TA100, +S9, 125 μM
  Relative mutagenicity (as compared to the control value): 0.6
[12]; TA100, +S9, 250 μM
  Relative mutagenicity (as compared to the control value): 0.6
[12]; TA100, +S9, 500 μM
  Relative mutagenicity (as compared to the control value): 0.6
[12]; TA100, +S9, 1000 μM
  Relative mutagenicity (as compared to the control value): 0.5
[12]; TA100, −S9, 31.25 μM
  Relative mutagenicity (as compared to the control value): 0.8
[12]; TA100, −S9, 62.5 μM
  Relative mutagenicity (as compared to the control value): 0.5
[12]; TA100, −S9, 125 μM
  Relative mutagenicity (as compared to the control value): 0.6
[12]; TA100, −S9, 250 μM
  Relative mutagenicity (as compared to the control value): 0.5
[12]; TA100, −S9, 500 μM
  Relative mutagenicity (as compared to the control value): 0.6
[12]; TA100, −S9, 1000 μM
  Relative mutagenicity (as compared to the control value): 0.7
[13]; [16]
  % inhibition at 5 μM (or 10 μM if racemate) Smooth: 0%
[13]; [17]
  % inhibition at 50 μM (or 100 μM if racemate) Smooth: 11%
[13]; [14]
  % inhibition. complete Smooth: 100%

From patent US12421243B2, “Pharmaceutically effective compounds inhibiting selectively the myosin 2 isoforms” (PRINTNET KERESKEDELMI ÉS SZOLGÁLTATÓ KFT., priority 2018, dated 2025)
